The source of these data is patent US6410585B1, “Inhibitors of protein tyrosine phosphatase” (priority 1997, dated 2002).

SMILES strings stand for the structures.

The assay deals with T1, rat PTP1 (Rattus norvegicus, UniProt P20417).
T1 construct: a C-terminal truncation of rat PTP1 (amino acid residues 1-322); GST (N, cleaved yes); made in house; host or cells: E. coli strain TG-1 (pGEX-2T)
T1 sequence (P20417 1-322): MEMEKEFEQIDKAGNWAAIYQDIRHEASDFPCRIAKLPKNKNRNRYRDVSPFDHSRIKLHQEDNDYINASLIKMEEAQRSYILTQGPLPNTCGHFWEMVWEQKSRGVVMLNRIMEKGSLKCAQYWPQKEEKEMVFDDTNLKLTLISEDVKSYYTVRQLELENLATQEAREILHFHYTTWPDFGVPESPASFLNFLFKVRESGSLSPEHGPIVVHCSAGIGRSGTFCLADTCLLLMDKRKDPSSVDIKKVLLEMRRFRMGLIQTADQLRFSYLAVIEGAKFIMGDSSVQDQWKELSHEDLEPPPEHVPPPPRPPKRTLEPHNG
The experiment in a line: PTP1 assay, pNPP hydrolysis (rate of change in A405). The class given is biochemical. The following applies: pNPP hydrolysis, Table 1; for inhibition at 1 µM / inhibition at 10 µM / inhibition at 100 µM: read-out: PTP1 Inhib % Inhib; for inhibition at 10 µM: Conc 10 uM. The source says:
PTP1 Assays: A construct, which consisted of a C-terminal truncation of rat PTP1 (amino acid residues 1-322) (cloned from a rat brain library) with an N-terminal glutathione S-transferase (GST) tag and an adjacent thrombin cleavage site, was inserted into vector plasmid pGEX-2T and transformed into E. coli strain TG-1 under the control of a lac promoter (K. L. Guan and J. E. Dixon (1991) Eukaryotic proteins expressed in Escherichia coli: an improved thrombin cleavage and purification procedure of fusion proteins with glutathione S-transferase. Analyt. Biochem. 192: 262-267). The GST-fusion protein was purified on a glutathione agarose affinity column, the GST tag was cleaved with thrombin, and the active enzyme was recovered for use in an assay to identify PTP inhibitors.
PTP1 activity is measured using either p-nitrophenol phosphate (pNPP) or a triphosphopeptide (that matches residues 1142 through 1153 of the β-subunit and the insulin receptor) as substrate in a 96-well microtiter plate format. An assay pH of 7.2 is used for standard assays (measured 405=9800 at pH 7.2).
Standard assays are conducted at room temperature in a total volume of 0.2 ml that contains Hepes buffer (50 mM, pH 7.2), NaCl (50 mM), EDTA (1 mM), DTT (1 mM), bovine serum albumin (1 mg/ml), pNPP (1 mM) and PTP1 (35 ng/ml). Compounds (2 μl of 10 mM solutions) are pipetted into wells of microtiter plates followed by 198 μl of premixed reaction mix (with PTP1 and pNPP added immediately before use). The rate of change in A405 is recorded for 60 min. Two wells on each plate contain DMSO controls and two wells contain sodium orthovanadate (1 mM) which inhibits PTP1-catalyzed hydrolysis of pNPP completely. Data are expressed as percent inhibition relative to the average of the DMSO controls measured on the same microtiter plate.

Consider `CCCCCNC(=O)C(Cc1ccc(OC(COO)COO)cc1)NC(=O)CCC(=O)OCc1ccccc1` (centres unmarked), for which the inhibition at 10 µM was found to be 9%. For the same compound, the inhibition at 1 µM (Conc 1 uM) stood at 4%. For the same compound, for the setting “Conc 100 uM”, the inhibition at 100 µM was 39%.
In the same order, the values of `CCCCCNC(=O)[C@H](Cc1ccc(OC(C(=O)O)C(=O)O)cc1)NC(=O)CCCC(=O)O` are 17%, 2% and 67%.
`CCCCCNC(=O)[C@H](Cc1ccc(OC(C(=O)O)C(=O)O)cc1)NC(=O)C1CCCCC1C(=O)O` (some centres unmarked): the inhibition at 10 µM is 13%. Besides, the inhibition at 1 µM (Conc 1 uM) is 3%. For the same compound, where the note is “Conc 100 uM”, the inhibition at 100 µM is 62%.
For `CCCCCNC(=O)[C@H](Cc1ccc(OC(C(=O)O)C(=O)O)cc1)NC(=O)COCC(=O)O`, in that order: 12%, 3% and 53%.
Consider `CCCCCNC(=O)[C@H](Cc1ccc(OC(C(=O)O)C(=O)O)cc1)NC(=O)CC1(CC(=O)O)CCCC1`, for which the inhibition at 10 µM came out at 20%. Besides, where the note is “Conc 1 uM”, the inhibition at 1 µM is 2%. Further, under “Conc 100 uM”, the inhibition at 100 µM worked out at 72%.
In the same order, the values of `CCCCCNC(=O)[C@H](Cc1ccc(OC(C(=O)O)C(=O)O)cc1)NC(=O)CC(=O)O` are 20%, 4% and 74%.
With `CCCCCNC(=O)C(Cc1ccc(OC(CCOO)COO)cc1)NC(=O)CCC(=O)O` (centres unmarked), the inhibition at 10 µM was 1%. In addition, for the setting “Conc 1 uM”, the inhibition at 1 µM is 0%. Moreover, the inhibition at 100 µM (Conc 100 uM) is 34%.
On to `CCCCCNC(=O)[C@H](Cc1ccc(OC(C(=O)O)C(=O)O)cc1)NC(=O)CC(C)(C)CC(=O)O`, for which the inhibition at 10 µM turned out to be 18%. The inhibition at 1 µM (Conc 1 uM) stood at 0%. For the same compound, the inhibition at 100 µM (Conc 100 uM) came to 67%.
On to `CCCCCNC(=O)[C@H](Cc1ccc(OC(C(=O)O)C(=O)O)cc1)NC(=O)c1ccccc1C(=O)O`, for which the inhibition at 10 µM came out at 14%. Further, the inhibition at 1 µM (Conc 1 uM) stood at 2%. The inhibition at 100 µM (Conc 100 uM) was determined as 63%.
For `CCCCCNC(=O)[C@H](Cc1ccc(OC(C(=O)O)C(=O)O)cc1)NC(=O)C1C2CCC(CC2)C1C(=O)O` (some centres unmarked), in that order: 5%, 4% and 41%.
Turning to `CCCCCCNC(=O)[C@H](Cc1ccc(OC(C(=O)O)C(=O)O)cc1)NC(=O)CCC(=O)O`, the inhibition at 10 µM amounted to 17%. Further, where the note is “Conc 1 uM”, the inhibition at 1 µM was found to be 3%. In addition, the inhibition at 100 µM (Conc 100 uM) is 74%.
Turning to `O=C(O)CCC(=O)N[C@@H](Cc1ccc(OC(C(=O)O)C(=O)O)cc1)C(=O)NCC1CCCCC1`, the inhibition at 10 µM is 21%. For the same compound, the inhibition at 1 µM (Conc 1 uM) came to 0%. Also, the inhibition at 100 µM (Conc 100 uM) stood at 73%.
In the case of `CCCCCNC(=O)[C@H](Cc1ccc(OC(C(=O)O)C(=O)O)cc1)NC(=O)C(CC(=O)O)CC(=O)O`, the inhibition at 10 µM amounted to 33%. Further, the inhibition at 1 µM (Conc 1 uM) was 1%. In addition, the inhibition at 100 µM (Conc 100 uM) is 83%.
With `CCCCCNC(=O)[C@H](Cc1ccc(OC(C(=O)O)C(=O)O)cc1)NC(=O)C1CC1C(=O)O` (some centres unmarked), the inhibition at 10 µM came out at 11%. Further, for the setting “Conc 1 uM”, the inhibition at 1 µM turned out to be 0%. Further, the inhibition at 100 µM (Conc 100 uM) stood at 57%.
For `CCOC(CNC(=O)[C@H](Cc1ccc(OC(C(=O)O)C(=O)O)cc1)NC(=O)CCC(=O)O)OCC`, the inhibition at 10 µM came to 7%. Moreover, the inhibition at 1 µM (Conc 1 uM) is 0%. Besides, the inhibition at 100 µM (Conc 100 uM) was found to be 46%.
In the case of `CC(C)CCNC(=O)[C@H](Cc1ccc(OC(C(=O)O)C(=O)O)cc1)NC(=O)CCC(=O)O`, the inhibition at 10 µM came to 6%. For the same compound, the inhibition at 1 µM (Conc 1 uM) was determined as 0%. The inhibition at 100 µM (Conc 100 uM) is 48%.
For `O=C(O)CCC(=O)N[C@@H](Cc1ccc(OC(C(=O)O)C(=O)O)cc1)C(=O)NCCN1CCCCC1`, the inhibition at 10 µM is 2%. Also, under “Conc 1 uM”, the inhibition at 1 µM was found to be 0%. Also, the inhibition at 100 µM (Conc 100 uM) was 23%.
In the same order, the values of `CCCCCNC(=O)C(Cc1ccc(OC(=CCOO)COO)cc1)NC(=O)CCC(=O)O` (centres unmarked) are 9%, 0% and 50%.
In the same order, the values of `O=C(O)CCC(=O)N[C@@H](Cc1ccc(OC(C(=O)O)C(=O)O)cc1)C(=O)NCCCN1CCOCC1` are 6%, 0% and 35%.
`O=C(O)CCC(=O)N[C@@H](Cc1ccc(OC(C(=O)O)C(=O)O)cc1)C(=O)NCCC(c1ccccc1)c1ccccc1`: the inhibition at 10 µM amounted to 3%. The inhibition at 1 µM (Conc 1 uM) came out at 0%. In addition, where the note is “Conc 100 uM”, the inhibition at 100 µM is 45%.
In the same order, the values of `O=C(O)CCC(=O)N[C@@H](Cc1ccc(OC(C(=O)O)C(=O)O)cc1)C(=O)NCCCn1ccnc1` are 3%, 2% and 26%.
As for `CCCCCNC(=O)[C@H](Cc1ccc(OC(C(=O)O)C(=O)O)cc1)NC(=O)C1C(C(=O)O)[C@@H]2CC[C@@H]1C2` (some centres unmarked), the inhibition at 10 µM was found to be 4%. In addition, where the note is “Conc 1 uM”, the inhibition at 1 µM worked out at 0%. Also, where the note is “Conc 100 uM”, the inhibition at 100 µM was determined as 37%.
For `CCCCCNC(=O)[C@H](Cc1ccc(OC(C(=O)O)C(=O)O)cc1)NC(=O)[C@@H]1CCCC[C@H]1C(=O)O`, in that order: 20%, 1% and 72%.
As to `CCCCCNC(=O)C(Cc1ccc(OC(COO)COO)cc1)NC(=O)NCC(=O)O` (centres unmarked), the inhibition at 10 µM turned out to be 23%. Under “Conc 1 uM”, the inhibition at 1 µM turned out to be 4%. In addition, the inhibition at 100 µM (Conc 100 uM) stood at 75%.
For `CCCCCNC(=O)C(Cc1ccc(OC(COO)COO)cc1)NC(=O)NCCCCCC(=O)O` (centres unmarked), the inhibition at 10 µM worked out at 18%. The inhibition at 1 µM (Conc 1 uM) is 6%. In addition, the inhibition at 100 µM (Conc 100 uM) is 63%.
As for `CCCCCNC(=O)C(Cc1ccc(OC(COO)COO)cc1)NC(=O)NCCC(=O)O` (centres unmarked), the inhibition at 10 µM was 21%. Moreover, for the setting “Conc 1 uM”, the “PTP1 Inhib % Inhib” value was found to be 3% and the inhibition at 1 µM came out at 2%. Besides, under “Conc 100 uM”, the “PTP1 Inhib % Inhib” value came out at 74% and the inhibition at 100 µM stood at 72%.
For the compound `CCCCCNC(=O)[C@H](Cc1ccc(OC(C(=O)O)C(=O)O)cc1)NC(=O)C(CC(=O)O)NC(=O)OCc1ccccc1` (some centres unmarked), the inhibition at 10 µM amounted to 51%. In addition, under “Conc 1 uM”, the inhibition at 1 µM was 10%. Under “Conc 100 uM”, the inhibition at 100 µM stood at 90%.
Regarding `CCCCCNC(=O)[C@H](Cc1ccc(OC(C(=O)O)C(=O)O)cc1)NC(=O)[C@H](CC(=O)O)NC(=O)CCCCC`, the inhibition at 10 µM came to 57%. In addition, the inhibition at 1 µM (Conc 1 uM) stood at 14%. Under “Conc 100 uM”, the inhibition at 100 µM was 91%.
Regarding `CCCCCNC(=O)[C@H](Cc1ccc(C=C(C(=O)O)C(=O)O)cc1)NC(=O)CCC(=O)O`, the inhibition at 10 µM came out at 6%. The inhibition at 1 µM (Conc 1 uM) is 3%. Further, the inhibition at 100 µM (Conc 100 uM) is 33%.
In the same order, the values of `O=C(O)CCC(=O)N[C@@H](Cc1ccc(OC(C(=O)O)C(=O)O)cc1)C(=O)NCCc1ccc(O)cc1` are 7%, 1% and 43%.
For `CCCCCNC(=O)[C@H](Cc1ccc(OC(C(=O)O)C(=O)O)cc1)NC(=O)CCC(N)=O`, the inhibition at 10 µM was 11%. Moreover, where the note is “Conc 1 uM”, the inhibition at 1 µM turned out to be 0%. Further, the inhibition at 100 µM (Conc 100 uM) was found to be 51%.
In the same order, the values of `CCCCCNC(=O)C(Cc1ccc(OC(C(=O)O)C(=O)O)cc1)NC(=O)C(CC(=O)O)NC(=O)OC(C)(C)C` (centres unmarked) are 62%, 16% and 94%.
In the case of `O=C(O)CCC(=O)NC(Cc1ccc(OC(COO)COO)cc1)C(=O)NCc1ccc(C(=O)O)cc1` (centres unmarked), the inhibition at 10 µM was 14%. Further, the inhibition at 1 µM (Conc 1 uM) amounted to 3%. Also, the inhibition at 100 µM (Conc 100 uM) was determined as 56%.
For `CCCCCNC(=O)C(Cc1ccc(OC(COO)COO)cc1)NC(=O)N(CC(=O)O)Cc1ccc(OCc2ccccc2)cc1` (centres unmarked), in that order: 35%, 5% and 90%.
As for `CCCCCNC(=O)C(Cc1ccc(OCC(=O)O)c(COO)c1)NC(=O)CCC(=O)O` (centres unmarked), the inhibition at 10 µM amounted to 63%. Further, the inhibition at 1 µM (Conc 1 uM) is 17%. For the same compound, the inhibition at 100 µM (Conc 100 uM) was found to be 93%.
